In patent publication US8912146B2, “Derivatives of APF and methods of use” (University of Maryland, Baltimore, priority 2008, dated 2014):

Experiments:
[1] = tested on: carcinoma cell lines (WiDr, HeLa, PANC-1, CaOv3, BT474, ACHN, T24, A549); experiment: 3H-thymidine incorporation in carcinoma cell lines; assay type: cell-based; details: 48 hrs
Experimental: Ovarian carcinoma (Caov-3), prostate carcinoma (LNCaP), melanoma (Hs839.T), pancreatic carcinoma (PANC-1), bladder carcinoma (T24, RT4 and TCCSuP), kidney carcinoma (ACHN), cervical carcinoma (HeLa), lung carcinoma (A549), colon carcinoma (WiDr), and breast carcinoma (Bt-474) cells were all purchased from the American Type Culture Collection (ATCC). Caov-3, HS839.T, PANC-1, and BT-474 cells were grown in DMEM medium (with 4 mM L-glutamine—Gibco BRL) containing 10% heat-inactivated fetal calf serum, 4.5 g/L glucose, 1.5 g/L sodium bicarbonate and 1% antibiotic/antimycotic solution (all supplements from Sigma except sodium bicarbonate which is from Gibco BRL). LNCaP cells were grown in RPMI medium (with 2 mM L-glutamine—Gibco BRL) containing10% heat-incativated fetal calf serum, 10 mM HEPES buffer, 1 mM sodium pyruvate, 4.5 g/L glucose, 1.5 g/L sodium bicarbonate, and 1% antibiotic/antimycotic solution (all supplements from Sigma except sodium bicarbonate which is from Gibco BRL). […]
Cancer (carcinoma or melanoma) cell proliferation was measured by ^3H-thymidine incorporation into each type of cancer cell, plating 3.0×10^3 cells/well (A549 cells) or 1.5×10^3 cells/well (all other cancer cells) onto a 96 well cell culture plate (VWR 29442-054), in 150 ul/well of the respective normal growth medium for each cell type (see above). […]
(§1) Significance of the difference in mean values between groups was determined by an analysis of variance.
(§2) Cell proliferation was measured by ^3H-thymidine incorporation into each cell type, plating cells in […] of their respective medium (see above) onto a 96-well cell culture plate (Corning, N.Y.) at a predetermined optimal cell density for APF inhibition of cell proliferation: Caov-3, PANC-1, T24, HeLa, and HS839.T cells were plated at a density of 1.5×10^3 cells/well; A549 cells were plated at a density of 3×10^3 cells/well. […] Cells were then incubated at 37° C. in a 5% CO2 atmosphere for 48 hours, after which cell contents were harvested, methanol-fixed onto glass fiber filter paper, and the amount of radioactivity incorporated determined. […]

Hs839.T melanoma cells = experiment: 3H-thymidine incorporation in melanoma cells; assay type: cell-based
Experimental: Ovarian carcinoma (Caov-3), prostate carcinoma (LNCaP), melanoma (Hs839.T), pancreatic carcinoma (PANC-1), bladder carcinoma (T24, RT4 and TCCSuP), kidney carcinoma (ACHN), cervical carcinoma (HeLa), lung carcinoma (A549), colon carcinoma (WiDr), and breast carcinoma (Bt-474) cells were all purchased from the American Type Culture Collection (ATCC). Caov-3, HS839.T, PANC-1, and BT-474 cells were grown in DMEM medium (with 4 mM L-glutamine—Gibco BRL) containing 10% heat-inactivated fetal calf serum, 4.5 g/L glucose, 1.5 g/L sodium bicarbonate and 1% antibiotic/antimycotic solution (all supplements from Sigma except sodium bicarbonate which is from Gibco BRL). LNCaP cells were grown in RPMI medium (with 2 mM L-glutamine—Gibco BRL) containing10% heat-incativated fetal calf serum, 10 mM HEPES buffer, 1 mM sodium pyruvate, 4.5 g/L glucose, 1.5 g/L sodium bicarbonate, and 1% antibiotic/antimycotic solution (all supplements from Sigma except sodium bicarbonate which is from Gibco BRL). T24 and RT4 cells were grown in McCoy's 5A medium (Gibco BRL) containing 10% heat-inactivated fetal calf serum, 1% L-glutamine, 2.2 g/L sodium bicarbonate, and 1% antibiotic/antimycotic solution (all supplements from Sigma except sodium bicarbonate which is from Gibco BRL). TCCSuP, HeLa, and WiDr cells were grown in MEM (Gibco BRL) containing 10% heat-inactivated fetal calf serum, 1% L-glutamine, 1 mM sodium pyruvate, and 1% antibiotic/antimycotic solution (all supplements from Sigma). ACHN cells were grown in the same medium as TCCSuP and HeLa cells with the exception that it also contained 1.5 g/L sodium bicarbonate (Gibco BRL). A549 cells were grown in F12 medium (Gibco BRL) containing 10% heat-inactivated fetal calf serum, 1% L-glutamine, and 1% antibiotic/antimycotic solution (all supplements from Sigma).
Cancer (carcinoma or melanoma) cell proliferation was measured by ^3H-thymidine incorporation into each type of cancer cell, plating 3.0×10^3 cells/well (A549 cells) or 1.5×10^3 cells/well (all other cancer cells) onto a 96 well cell culture plate (VWR 29442-054), in 150 ul/well of the respective normal growth medium for each cell type (see above). All APF congeners were resuspended as described for normal bladder epithelial cells, except using the specific serum-free medium appropriate for each cell type, and the remainder of the assay was performed as described for normal bladder cells, above.
as §1
as §2, with “cells/well. On the next day, cell growth medium was removed and replaced with serum-free medium appropriate for each cell type.” for “cells/well.”

[2] = tested on: Akt/GSK3/beta catenin signaling in T24 bladder carcinoma cells; experiment: Western blot / qRT-PCR of Akt/GSK3/beta catenin signaling in T24 cells; assay type: cell-based; details: 50 nM
Experimental: Gene expression was determined by quantitative RT-PCR, and specific protein expression or phosphorylation was determined by Western blot. p53 mRNA and protein expression served as positive controls for APF activity. Beta actin expression served as a standard control for Western blot analyses (see FIGS. 38-40).

[3] = tested on: primary normal human bladder epithelial cells; details: Keay et al., 2004; cited from earlier work
[4] = nonelectroporated T24 control cells, p<0.05

## CC(=O)NC1C(O[C@@H]2OC(CO)[C@H](O)C(O)C2O)[C@@H](O)C(CO)O[C@@H]1OC(C)[C@H](N)C(=O)NC(C(=O)N1CCC[C@H]1C(=O)NC(C)C(=O)N[C@@H](C)C(=O)NC(C(=O)N[C@H](C(=O)NC(C(=O)N[C@@H](C)C(=O)O)C(C)C)C(C)C)C(C)C)C(C)C (stereo partly drawn) [Derivative 1, Galβ1-3GalNAcα-O-TVPAAVVVA]
[1]; compared to cell medium alone (p<0.00001)
  inhibition of carcinoma cell line proliferation: significantly inhibited proliferation
[1]; listed as as-APF
  IC50 in carcinoma cell lines: low to mid nanomolar range
Hs839.T melanoma cells; 48 hrs, compared to cell medium alone (p<0.00001)
  inhibition of melanoma cell proliferation: significantly inhibited proliferation
Hs839.T melanoma cells; 48 hrs, listed as as-APF
  IC50 in melanoma cells: low to mid nanomolar range
Hs839.T melanoma cells; listed as as-APF
  inhibitor concentration at which significant inhibition occurred, melanoma cells vs carcinoma cells: 1-2 orders of magnitude higher
Hs839.T melanoma cells; listed as asialo-APF
  inhibitor concentration at which significant inhibition occurred, melanoma cells vs carcinoma cells: 2 orders of magnitude higher
[2]; T24 cells, p>0.05
  mRNA and protein expression of total Akt, GSK3beta, beta catenin: neither mRNA nor protein expression of total Akt, GSK3beta, or beta catenin changed significantly
[2]; [4]
  Akt phosphorylation (serine 473 and threonine 308): significantly decreased
  GSK3beta phosphorylation (tyrosine 216): significantly decreased
  beta catenin phosphorylation (serine 33/37 and threonine 41): significantly increased
  beta catenin phosphorylation (serine 45): significantly decreased
[3]
  activity in biological antiproliferation assays, previously determined: essentially equipotent
